Assay results: patent US20240383953A1, “NOVEL NAN[…] NANOG PRION-LIKE REPEATS” (BAYLOR COLLEGE OF MEDICINE, priority 2021, published 2024)
Where two headings read alike, the source gives them in different places.

Experiments:
[1] = target: dsDNA GATA6-AF488/GATA6-AF647; assay: fEMSA with dsDNA; assay type: binding
Protocol: (§1) Basic residues, 3 Arg and 2 Lys, were incorporated for nucleic acid recognition. […] Similar results were obtained from two independent experiments. FIG. 8C (left panels) show photon bursts distribution of dsDNAs alone (GATA6-AF488 and GATA6-AF647; top) or with 7.5 μM (0.03 mg/mL) 1-4wRK peptide (bottom). Middle panels of FIG. 8C show FCCS curves for corresponding photon fluctuations shown in the left panels. […] Similar results were obtained from three independent experiments. […] Similar results were obtained from three independent experiments. […] Error bars were calculated from three independent measurements. […] Similar results were obtained from two independent experiments.
(§2) ThT binding to amyloid β-sheet emits maximally at ˜490 nm. Similar results were obtained from 2 independent experiments. […] Similar results were obtained from 2 independent experiments.
(§3) Applicant observed nucleic acid interactions by fluorescence electrophoretic mobility shift assays (fEMSA). […] Moreover, the 1-4wRK peptide was also potent in recognizing single stranded DNA (ssDNA (TG)6) and RNA (ssRNA (UUAGGG)4-AF488/AF594).
(§4) By EMSA, almost all DNAs were bound at […] or 0.03 mg/mL 1-3wRRK. […] This was further corroborated by fluorescence polarization measurements.

[2] = test system: Gata6-AF488 and Gata6-AF647 DNA; assay: FCCS DNA bridging by NANOG; assay type: binding
Protocol: (§5) FIGS. 6A-6G provide data related to intermolecular DNA bridging through NANOG assemblies. […] The peak at EFRET ˜0 corresponds to AF488-conjugated unbound/bound DNA. FIGS. 6E1-4 show representative cross-correlation FCCS curves of Gata6-AF488 and Gata6-AF647 with various concentrations of WT ((i) 0 nM; (ii) 63 nM; (iii) 875 nM) and W8A mutant ((iv) 875 nM). […] Nad and diffusion coefficients were derived and calculated from FCCS fits (Methods). […] Through prion-like assembly, NANOG can initiate intragenomic (promoter-enhancer) contacts, as well as connecting distant intergenomic loci to form superenhancer clusters with other TFs and coactivators (green/yellow).
To further validate NANOG-dependent DNA bridging, Applicant resorted to fluorescence cross-correlation technique (FCCS). Binding of individual DNAs (differentially labeled with AF488 and AF647) to form a complex would result in correlated fluorescence signals.
FCCS experiments with various NANOG concentrations confirmed cross-correlation with as little as ˜30 nM WT NANOG (FIG. 6F). The increase in cross-correlated particles coincided with a decrease in molecular complex diffusion coefficient (bright lower line, FIG. 6F). Without being bound by theory, the decrease in cross-correlated particles at high NANOG concentrations may reflect competition for DNA with excess NANOG.

[3] = test system: Gata6-AF488 and Gata6-AF647 DNA; assay: Intermolecular diffusion smFRET DNA bridging; assay type: binding; settings: 250 nM NANOG WT
Protocol: as §5
To test the DNA bridging hypothesis, Applicant performed single molecule FRET (smFRET) diffusion experiments. Intermolecular diffusion smFRET is challenging due to low chance encounters at dilute pM concentrations. Gata6 DNAs were independently labeled with AF488 or AF647. […] However, in the presence of 250 nM NANOG WT.

[4] = test system: ssDNA (TG)6 and ssRNA (UUAGGG)4-AF488/AF594; assay: fEMSA with single stranded nucleic acids; assay type: binding; settings: immobilized in the gel wells
Protocol: as §1, §3

GATA6 dsDNA = assay: Fluorescence polarization binding measurements; settings: Hill binding equation, mean±SD
From the text: as §2
Since 1-3wRRK became soluble and much less aggregation-prone on its own, Applicant determined if the WR repeat (steric zipper region) was affected by changes in physical properties and still contributed towards recognizing DNA. Applicant compared its DNA binding capability to TAT and 1-4wRK by EMSA and fluorescence polarization measurements (FIGS. 9G-9H). Applicant observed that 1-3wRRK binds DNA more effectively than 1-4wRK, mostly likely due to the extra basic residues (FIGS. 8B, 9G, and 9H).
as §4

[5] = test system: fluorescent proteins h6GeGFP and h6GmCherry; assay: Co-partitioning with fluorescent proteins; settings: h6GeGFP and h6GmCherry 5 μM
Protocol: as §1
Applicant used burst analysis to quantify sizes of the oligomeric species. The average fluctuations were assumed to represent monomeric species, and any degree of deviations from average were characterized as the oligomeric states. Applicant observed numerous heterogeneous oligomeric states that increased in molecular sizes with increasing peptide concentration (FIGS. 8D-8E). Because NANOG is also known as a ‘molecular hub’ protein capable of interactions with many proteins with its WR domain, Applicant tested whether the WR peptide mimetics could non-specifically recruit random proteins (e.g., fluorescent proteins h6GeGFP and h6GmCherry for convenient visualization). […]

[6] = test system: GATA6-AF488 and GATA6-AF647; assay: FCCS DNA bridging by peptides; assay type: binding
Protocol: as §1
ThT binding to amyloid β-sheet emits maximally at ˜490 nm. Similar results were obtained from 2 independent experiments. […]
Applicant also tested the minipeptides' ability to bring together independent DNA molecules in solution. Using Fluorescence Cross-Correlation Spectroscopy (FCCS), Applicant observed an absence of cross-correlation between differentially fluorescently labeled DNAs (GATA6-AF488 and GATA6-AF647) without the peptide. […]
The significant 1-3wRK DNA-bridging competency was further confirmed by FCCS titration data and burst analysis, where Applicant observed cross-correlation even at ˜30 nM 1-3wRRK. […] Applicant demarcated the LLPS regimes using turbidity assay (UV absorbance at 350 nm; FIG. 8J). […]

DNA = assay: LLPS turbidity assay (UV absorbance at 350 nm); assay type: physicochemical
Protocol: as §2
The significant 1-3wRK DNA-bridging competency was further confirmed by FCCS titration data and burst analysis, where Applicant observed cross-correlation even at ˜30 nM 1-3wRRK. Applicant next investigated whether the peptides' ability to form nano-assemblies also correlated with their capacity to drive mesoscale condensates. Applicant demarcated the LLPS regimes using turbidity assay (UV absorbance at 350 nm; FIG. 8J). The LLPS data (presented in mg/mL concentration unit in FIG. 8J) reflected the behaviors observed at nanoscale level.

Substance | Kd ([1]; full-length NANOG, for comparison, read-out: dsDNA affinity) [µM] | cross-correlation of differentially labeled DNAs [2] | lowest concentration giving cross-correlation [2] [nM] | proximity of separate DNAs [3] [Å] | Kd ([1]; fEMSA, read-out: dsDNA affinity (50% free DNA)) [µM] | peptide concentration giving completely bound peptide:nucleic acid complexes [4] [nM] | cooperativity n (GATA6 dsDNA) | binding constant Ka (GATA6 dsDNA; n=3) [nM] | peptide concentration giving visible precipitates of fluorescent proteins [5] [mg/mL] | cross-correlation (DNA bridging) ([6]; 0.9 μM peptides) | lowest peptide concentration giving cross-correlation ([6]; FCCS titration) [µM] | aggregation without DNA (DNA; 0.2 mg/mL peptide) | potency in driving DNA:peptide LLPS (DNA; turbidity Abs350 nm>0.07 = LLPS positive)
NANOG WT | 0.03 to 0.06 | significant cross-correlation | ~30 | ≤ 70 |  |  |  |  |  |  |  |  | 
WSNQTWNNSTWSNQTQNIQSWSNHSRRRKK [1-4wRK] |  |  |  |  | ~1 | 60 to 250 | 3.3±1.2 | 340 ± 110 | ~0.3 | small degree of cross-correlation | 1 | aggregates even without DNA | more effective than TAT at higher concentrations of DNA
